Data: PubChem BioAssay (NCI)
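Cultured in 96-well plates, cells were exposed to test compound for 48 hours across five concentrations. Abbreviation: GI50, concentration required for 50% inhibition of growth. TGI is the concentration that stops growth completely.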

Assays:
Assay in all cases: NCI anticancer screen, dose series, 48 h
[1] = test system: DLD-1 colon
[2] = test system: SK-OV-3 ovarian
[3] = test system: UO-31 renal
[4] = test system: TK-10 renal
[5] = test system: NCI-H23 lung
[6] = test system: DMS 114 small cell lung
[7] = test system: M19-MEL melanoma
[8] = test system: SNB-78 CNS
[9] = test system: DMS 273 small cell lung
[10] = test system: HOP-18 NSCLC
[11] = test system: NCI/ADR-RES ovarian
[12] = test system: MDA-MB-435
[13] = test system: T-47D breast

Compound | TGI [1] [µM] | TGI [2] [µM] | TGI [3] [µM] | TGI [4] [µM] | TGI [5] [µM] | TGI [6] [µM] | TGI [7] [µM] | TGI [8] [µM] | TGI [9] [µM] | TGI [10] [µM] | GI50 [11] [µM] | TGI [11] [µM] | GI50 [12] [µM] | TGI [12] [µM] | GI50 [2] [µM] | GI50 [3] [µM] | GI50 [4] [µM] | GI50 [5] [µM] | GI50 [13] [µM] | TGI [13] [µM]
COC(=O)/C(=N/Nc1cccc(Cl)c1)C(C(=O)C(=O)Nc1cccc(Cl)c1C)c1nc2ccccc2nc1C (stereo not given) | > 100 | > 100 | 75.1 | > 100 | > 100 | > 100 | > 100 |  |  |  |  |  |  |  |  |  |  |  |  | 
CCN(CC)c1ccc(N=Nc2ccc([N+](=O)[O-])cc2OC(=O)/C=C/c2ccccc2)c(OC(=O)/C=C/c2ccccc2)c1 | > 100 | > 100 | > 100 | > 100 | > 100 | > 25.2 | > 100 | > 100 | > 100 | 9.04 |  |  |  |  |  |  |  |  |  | 
Cc1cc(-c2ccccc2)nc(Nc2nc3ccccc3o2)n1 | > 100 | > 100 | > 100 | > 100 | > 100 | > 100 | > 100 | > 100 |  |  |  |  |  |  |  |  |  |  |  | 
NC(=O)c1ccccc1NC(=O)C(=O)Cc1nc2ccccc2[nH]c1=O | > 100 | > 100 | > 100 | > 100 | > 100 | > 100 | > 100 |  | > 100 |  |  |  |  |  |  |  |  |  |  | 
O=C(CSc1ncn[nH]1)C[P+](c1ccccc1)(c1ccccc1)c1ccccc1 | > 100 | > 100 | > 100 | > 100 | > 100 | > 100 | > 100 | > 100 | > 100 |  |  |  |  |  |  |  |  |  |  | 
Cn1c(=O)c(NC(=O)C(Cl)(Cl)Cl)nc2ccccc21 | > 100 | > 100 | > 100 | > 100 | > 100 | > 100 | > 100 | > 100 | > 100 |  |  |  |  |  |  |  |  |  |  | 
COc1ccc2c(c1)CC[C@@H]1[C@@H]2CC[C@]2(C)[C@@H](NC(=O)/C=C/c3ccc(O)c(O)c3)CC[C@@H]12 |  | 27.1 | 15 | 6.6 | 12.6 |  |  |  |  |  | 2 | 6.05 | 3.43 | 11.1 | 11.5 | 1.26 | 1.47 | 3.51 | 17.3 | 43
Cc1ccc(NC(=O)C2C(=O)N(c3ccc(C)c(C)c3)C(=O)/C2=N\NC(N)=O)cc1C (stereo not given) | > 100 | > 100 | > 100 | > 100 | > 100 | > 100 | > 100 | > 100 |  | > 100 |  |  |  |  |  |  |  |  |  | 
CCOc1ccc2c(c1)[n+]([O-])c(-c1ccc(Br)cc1)c(N)[n+]2[O-] | > 100 | > 100 | > 100 | > 100 | 70.8 | > 100 | > 100 | > 100 | > 100 | > 100 |  |  |  |  |  |  |  |  |  | 
NC1=NC(c2ccc(Cl)cc2)N(c2ccc(S(N)(=O)=O)cc2)C(N)=N1 (stereo not given) |  | > 100 | > 100 | > 100 | > 100 |  |  |  |  |  |  | > 100 |  | > 100 |  |  |  |  |  | > 100
CCn1c(SC(C)C(=O)c2c(C)n(C)n(-c3ccccc3)c2=O)nc2ccccc2c1=O (stereo not given) | > 100 | > 100 | > 100 | > 100 | > 100 | > 100 | > 100 | > 100 | > 100 |  |  |  |  |  |  |  |  |  |  | 
Nc1c(O)cc(N=C2C(=O)C=CC=C2C(=O)O)c(O)c1C(=O)O | > 31.6 | > 100 | > 100 | > 100 | > 100 | > 100 | 37.9 | > 100 | > 100 | > 100 |  |  |  |  |  |  |  |  |  | 
CN(COC(=O)c1ccccc1)c1nc(N(C)COC(=O)c2ccccc2)nc(N(C)COC(=O)c2ccccc2)n1 |  | > 100 | > 100 | 59.2 | > 100 |  |  |  |  |  |  | > 100 |  | > 100 |  |  |  |  |  | > 100
Cc1noc2c1C(=O)CCC2 | > 100 | > 100 | > 100 | > 100 |  | > 100 | > 100 | > 100 |  | > 100 |  |  |  |  |  |  |  |  |  | 
S=c1nc(COc2ccc(Cl)cc2Cl)[nH][nH]1 | > 100 |  | > 100 | > 100 | > 100 | > 100 | > 100 | > 100 | > 100 |  |  |  |  |  |  |  |  |  |  | 
Cc1cccc(C(C)C)c1N1C(=O)C(=O)C(c2nc3ccccc3o2)C(=O)C1=O | > 100 | > 100 | > 100 | > 100 | > 100 | 75.8 | > 100 | > 100 | > 100 | > 100 |  |  |  |  |  |  |  |  |  | 
S=c1[nH]nc(Cc2ccccc2)c(=S)[nH]1 | > 100 | > 100 | > 100 | > 94.1 | > 100 |  | > 100 | > 100 | > 100 | > 100 |  | > 100 |  | > 100 |  |  |  |  |  | 75.4
Cc1nc2c(o1)C(=Nc1ccccc1)c1ccccc1C2=O | 32 | 28 | 20.6 | 69.9 | 5.25 | 8.57 | 3.65 | 37.6 | 23.2 | 18 |  |  |  |  |  |  |  |  |  | 
Cc1ccc(-c2c3c(nn2-c2ccc(S(N)(=O)=O)cc2)-c2ccccc2C3)cc1 |  | > 100 | 21.8 | 38.1 | 45.2 |  |  |  |  |  | 23.4 | 68.7 | 18.2 | 34.7 | 47.3 | 6.52 | 19.2 | 22.3 | 71.3 | > 100
CC(=O)OC1=CC2=CC[C@H]3[C@@H]4CCC(=O)[C@@]4(C)CC(=O)[C@]3(S)[C@@]2(C)CC1 |  | > 100 | > 100 | 85.1 | > 100 |  |  |  |  |  |  | > 100 |  | > 100 |  |  |  |  |  | > 100
COc1ccc(C(c2ccc(OCCN(C)C)cc2)c2cc3ccccc3c3ccccc23)cc1 (stereo not given) |  | 20.4 | 2.9 | 3.1 | 3.8 |  |  |  |  |  | 1.71 | 3.39 | 1.71 | 3.14 | 6.62 | 1.49 | 1.64 | 1.83 | 1.47 | 3.12
